Results reported in paper PMC10778758, “Dithioethanol (DTE)-Conjugated Deoxyribose Cyclic Dinucleotide Prodrugs (DTE-dCDNs) as STING Agonist” (International Journal of Molecular Sciences, 2023).

Tests used:
[1] = Release of parent dCDN from prodrug 9 in cell lysates (HPLC); format: in vitro ADME; details: 100 μM prodrug, 37 °C
Experimental: To analyze the reduction dependency, we performed the in vitro cleavage test by incubating prodrug 9 with a reductive substance such as GSH or DTT and cell lysates at 37 °C and then determined the change with HPLC. […] As the reductive substance or cell lysates were added, the peak for prodrug 9 disappeared and the new peaks at 1.2 min appeared in 0.5 h and 2 h, respectively. The released parent dCDN was also confirmed with 3′,3′-c-di-dAMP through UPLC-MS (Figure S1).
Prodrug 9 release parent drug initiated by cell lysates, DTT, and GSH. HEK 293T cells were plated in a 6-well plate at a density of 10^6 cell per well. After 48 h, the culture media was removed and washed with 500 μL PBS buffer. Cells were collected into 1.5 mL microtubes. An amount of 200 μL weak RIPA lysis buffer containing 1 mM protease inhibitor PMSF (LEAGENE, Trenton, NJ, USA) was added to each tube for 30 min. After centrifugation at 13,000 rpm for 10 min, the supernatant (180 μL) was transferred into a new tube. An amount of 100 μM prodrug 9 was added into the cell lysate (60 μL) in an air-bath incubator at 37 °C. […]
Figure 3 Parent dCDNs release in GSH, DTT (a), and cell lysates (b). An amount of 100 μM prodrug 9 was added into the 10 mM GSH, 10 mM DTT, and cell lysates for various times (0.5 h and 2 h) at 37 °C and analyzed with HPLC (Agilent 1260, Santa Clara, CA, USA).

THP-1 cells = test: CCK8 cell viability, THP-1 cells; format: cell-based; details: 10 μM, 24 h
Experimental: Cell viability of THP-1 and HEK293T cells. A total of 5 × 10^3 HEK293T cells or THP-1 cells were seeded in 96-well plates. […] Cell counting kit-8 (CCK8) (US EVERBRIGHT, Newport Beach, CA, USA, c6005) was then used to quantitatively assess the cell viability through the OD value at 450 nm. The HEK293T cell line was obtained from American Type Culture Collection (ATCC).
Figure 8 Cell viability of THP-1 and HEK293T cells stimulated by prodrug 9 and 2′,3′-cGAMP. (a) A total of 5 × 10^3 THP-1 cells or (b) HEK293T cells were seeded in 96-well plates. Cells were stimulated with prodrug 9 (10 μM), 3′,3′-c-di-dAMP (100 μM), and 2′,3′-cGAMP (100 μM) for 24 h. Then, cell counting kit-8 (CCK8) (US EVERBRIGHT, c6005) was used to quantitatively assess cell viability through the OD value at 450 nm. Data are presented as mean ± SD, n = 3.

time at which prodrug peak disappeared and parent dCDN peak appeared [1]: 2 h
SMILES: Nc1ncnc2c1ncn2C1CC2OP(=O)(OCCSSc3ccccn3)OCC3OC(n4cnc5c(N)ncnc54)CC3OP(=O)(OCCSSc3ccccn3)OCC2O1 (centres unmarked) [prodrug 9]
cell viability (CCK8), THP-1 cells (THP-1 cells): no significant influence on the growth
